Reference: patent US5663145A, “Products for administering an initial high dose of Cetrorelix and producing a combination package for use when treating diseases” (ASTA Medica Aktiengesellschaft, priority 1993, dated 1997)
Non-standard residues stand in square brackets, D forms with d. Residues, ends and D or L forms follow the SMILES beside them. dPhe(4-Cl) = N[C@H](Cc1ccc(Cl)cc1)C(=O)O; d2Nal = N[C@H](Cc1ccc2ccccc2c1)C(=O)O; dCit = NC(=O)NCCC[C@@H](N)C(=O)O; d3Pal = N[C@H](Cc1cccnc1)C(=O)O

Tests used:
hormone concentration = assay: clinical trials, daily dose of 10 mg, suppression of hormone concentration; type: in vivo, human; conditions: daily dose of 10 mg
From the text: This high daily dose cannot be applied in slow-release forms which are intended to act over a long period of time, for example several months. The depot injected under the skin would be too voluminous and would no longer be acceptable. Therefore there is the object of providing a product for reliable and acceptable application.

[1] = system: DMBA-induced mammary cancers; assay: DMBA-induced mammary cancers in rats; type: in vivo; conditions: initial high dose and a further dose which is not active when administered on its own
LH, FSH and testosterone = assay: trial in humans over three weeks, initial dose plus maintenance doses, suppression of LH, FSH and testosterone; type: in vivo
Protocol: This surprising observation in animals was also confirmed in humans. […] The trial was performed over three weeks.

CC(=O)N[C@H](Cc1ccc2ccccc2c1)C(=O)N[C@H](Cc1ccc(Cl)cc1)C(=O)N[C@H](Cc1cccnc1)C(=O)N[C@@H](CO)C(=O)N[C@@H](Cc1ccc(O)cc1)C(=O)N[C@H](CCCNC(N)=O)C(=O)N[C@@H](CC(C)C)C(=O)N[C@@H](CCCNC(=N)N)C(=O)N1CCC[C@H]1C(=O)N[C@H](C)C(N)=O [Cetrorelix] (Ac-[d2Nal][dPhe(4-Cl)][d3Pal]SY[dCit]LRP[dA]-NH2)
suppression of the hormone concentration (hormone concentration): complete suppression of the hormone concentration to castration level | treatment of DMBA-induced mammary cancers [1]: successful treatment | suppression of LH, FSH and testosterone under maintenance doses after initial dose (LH, FSH and testosterone; after 10 mg initial dose, maintenance 1 mg every 12 hours, 2 mg every 24 hours or 1 mg every 24 hours, three weeks): suppression of LH, FSH and testosterone was maintained | suppression of LH, FSH and testosterone after initial dose (LH, FSH and testosterone; injection of an initial dose of 10 mg): led to suppression of LH, FSH and testosterone | suppression of LH, FSH and testosterone with maintenance doses on their own (LH, FSH and testosterone; maintenance doses (1 mg every 12 hours, 2 mg every 24 hours, 1 mg every 24 hours) applied on their own, no initial dose): suppression of LH, FSH and testosterone is not achieved
